Laboratory results as given in US20080085874A1, “SMALL MOLECULE POTENTIATOR OF HORMONAL THERAPY FOR BREAST CANCER” (The Regents of the University of California, priority 2006, published 2008).
Where a name gives a salt, the structure may show the parent alone. Read-outs that look alike come from different tables or passages of the source.

What was measured:
MCF-7 cells [1] = test: Cell proliferation assay (Coulter Counter or CyQUANT fluorescent DNA-binding assay) in MCF-7 cells; type: cell-based, human; conditions: for E2-stimulated growth, antiestrogen alone / E2-stimulated growth, antiestrogen plus VPA: 100 pM E2, 7 days, fulvestrant at higher concentrations; for E2-stimulated growth, antiestrogen plus VPA: plus 750 μM VPA; for effect of HDAC inhibitor on antiproliferative action of tamoxifen: range of HDAC inhibitor doses with 10 nM OH-Tam
Description: (§1) Cell Culture and Ligands. MCF-7 cells were provided by C. Walker (MD Anderson Cancer Center, Houston, Tex.) and were routinely cultured in IMEM (Invitrogen, Grand Island, N.Y.) with 10% fetal calf serum (FBS) (Hyclone, Logan, Utah). Ishikawa cells were also provided by C. Walker and cultured in DMEM/Ham's F12 with 10% FBS. T47-D cells were obtained from ATCC and were routinely cultured in DMBM (Invitrogen) plus 10% FBS. ZR-75-1 cells were provided by B. Hahn (University of California, San Francisco) and were routinely cultured in RPMI (Invitrogen) plus 10% PBS. MCF-7/neo and MCF-7/HER2 (clone 18) cells were also obtained from B. Hahn and cultured in DMEM plus 10% FBS. MCF-7aro cells were provided by S. Chen (Beckham Research Institute of the City of Hope) and routinely grown in DMEM/Ham's F12 plus 10% FBS. For all experiments cells were switched to phenol red-free media containing 5% charcoal/dextran-stripped FBS (Hyclone) for 3-5 days prior to start of the experiment. Cells were treated with ligands in media containing 2-5% stripped PBS for the indicated times.
(§2) Cell Proliferation Assays. Cells growing in 24-well dishes were treated with ligands in triplicate for the indicated times. Cells were trypsinized and counted electronically with a Coulter Counter (Coulter Electronics, Hialeah, Fla.). Alternatively, cell proliferation was measured using a fluorescent DNA-binding assay, CyQUANT (Invitrogen) in which cells were treated with ligands in triplicate in 96-well plates for the indicated times and assayed according to the manufacturer's instructions.

[2] = test system: endogenous ERα at estrogen response element (ERE); test: ERE-Luc luciferase reporter gene transfection assay; conditions: for ERE-Luc transcription: 24 hours
Description: MCF-7 cells growing in 12-well dishes were transfected with ERE-Luc and β-galactosidase reporter gene using Lipofectamine 2000 transfection reagent (Invitrogen) according to manufacturer's instructions. […] Five hours after transfection, cells were treated in triplicate with ligands and harvested 24 hours later using a lysis buffer containing 100 MM TrisHCl, 1% Triton-X100 and 1.μ/ml dithiothreitol. Reporter gene activity was measured using assay kits for Luciferase (Promega, Madison, Wis.) and β-galactosidase (Tropix, Bedford, Mass.), according to manufacturer's instructions.

[3] = test system: Ishikawa endometrial adenocarcinoma cells; test: Cell proliferation assay in endometrial cells; type: cell-based; conditions: 7 days, 750 μM VPA; for cell numbers / proliferation: 10 nM OH-Tam, 100 pM or 1 nM E2
Description: as §1, §2

Bcl-2 = test: Immunoblotting of Bcl-2 protein in MCF-7 cells; type: cell-based, human; conditions: 72 hours
Description: (§3) Immunoblotting. MCF-7 cells were grown in 100 mm dishes and treated with ligands in triplicate. […] Whole cell extracts were separated by SDS-PAGE, transferred to a nitrocellulose membrane, and immunoblotted using standard methods with the following antibodies: ERα, Bik, Bcl-2, and β-tubulin (all from Santa Cruz Biotechnology, Santa Cruz, Calif.) and cyclin D1 (Zymed, San Francisco, Calif.).

MCF-7 cells [4] = test: Phase microscopy of cell number and morphology; type: cell-based, human; conditions: 6 days, 100 pM E2, 750 μM VPA, 10 nM OH-Tam
MCF-7aro cells = test: Cell proliferation assay in MCF-7 cells with stably expressed aromatase; type: cell-based, human; conditions: 5 days
Description: as §1, with “Cells were treated with ligands in media containing 2-5% stripped PBS for the indicated times.” left out
(§4) Cell Proliferation Assays. […] Cells were trypsinized and counted electronically with a Coulter Counter (Coulter Electronics, Hialeah, Fla.). Alternatively, cell proliferation was measured using a fluorescent DNA-binding assay, CyQUANT (Invitrogen) in which cells were treated with ligands in triplicate in 96-well plates for the indicated times and assayed according to the manufacturer's instructions.

ERα = test: Immunoblotting of ERα protein in MCF-7 cells; type: cell-based, human; conditions: 72 hours
Description: as §3
(§5) Changes in protein expression from endogenous genes in MCF-7 cells treated for 72 hours with ligands was also evaluated.

MCF-7/HER2 cells = test: Cell proliferation assay in MCF-7 cells overexpressing HER2/neu; type: cell-based, human; conditions: 10 pM E2, 750 μM VPA and/or 10 nM OH-Tam, 7 days
Description: as §1, with “Cells were treated with ligands in media containing 2-5% stripped PBS for the indicated times.” left out
as §4

MCF-7 cells [5] = test: Flow cytometry cell cycle distribution (DNA content); type: cell-based, human; conditions: 48 hours
Description: Flow cytometry. MCF-7 cells growing in 100 mm dishes were treated with ligands for 48 hours, then trypsinized and fixed in 70% ethanol and stained with […] propidium iodide (Roche, Nutley, N.J.). DNA content was obtained by measuring 10,000 events on a FACScalibur flow cytometer (BD Biosciences, San Jose, Calif.). The percentages of cells in each phase of the cell cycle were determined using the Watson (Pragmatic) model analyzed by FlowJo flow cytometry software (Treestar, San Carlos, Calif.).

cyclin D1 = test: Immunoblotting of cyclin D1 protein in MCF-7 cells; type: cell-based, human; conditions: 72 hours
Description: as §3, §5

MCF-7 cells [6] = test: Annexin V apoptosis assay; type: cell-based, human; conditions: 72 hours, absence of E2
Description: Apoptosis. MCF-7 cells growing on coverslips were treated with ligands for 72 hours and unfixed cells were assayed with the Annexin-V-FLOUS Staining kit (Roche), according to manufacturer's instructions. Total cell number was determined by counting nuclei stained with Hoescht 33342 (Roche). Fluorescence was analyzed using a Zeiss Axioplan fluorescent microscope (Zeiss, Thomwood, N.Y.).

Structure (SMILES): C[C@]12CC[C@@H]3c4ccc(O)cc4C[C@@H](CCCCCCCCC[S+]([O-])CCCC(F)(F)C(F)(F)F)[C@H]3[C@@H]1CC[C@@H]2O (stereo partly drawn) [fulvestrant, Fulvestrant]
- E2-stimulated growth, antiestrogen alone (MCF-7 cells [1]): decreased E2-induced proliferation
- E2-stimulated growth, sub-saturating fulvestrant plus VPA (MCF-7 cells [1]; fulvestrant 1 to 5 nM plus VPA): VPA enhanced the anti-proliferative effect of lower doses of fulvestrant in a dose responsive manner
- E2-stimulated growth, antiestrogen plus VPA (MCF-7 cells [1]): VPA did not further add to its inhibitory effect

Structure (SMILES): NC(=O)N1c2ccccc2C=Cc2ccccc21 [carbamazepine]
- slowing of breast cancer cell growth in combination (MCF-7 cells [1]; carbamazepine 50 μM with rapamycin 2 nM, picropodophyllin 100 nM, tamoxifen 10 nM): combines effectively

Structure (SMILES): C[C@]12CC[C@@H]3c4ccc(O)cc4CC[C@H]3[C@@H]1CC[C@@H]2O [E2, 17β-estradiol]
- stimulation of ERE-Luc transcription ([2]; 100 pM E2, 24 hours): approximately 13 fold
- cell numbers / proliferation [3]: increase was observed in cell numbers
- Bcl-2 protein expression (Bcl-2): upregulated

Structure (SMILES): CC(/C=C/C(=O)NO)=C\[C@@H](C)C(=O)c1ccc(N(C)C)cc1 [TSA, trichostatin A]
- ERE-Luc transcription ([2]; high concentrations, alone): induced transcription
- IC50 (MCF-7 cells [1]; 100 pM E2, day 7, read-out: IC50 (cell proliferation), HDAC inhibitor alone): 0.051 µM
- effect of HDAC inhibitor on antiproliferative action of tamoxifen (MCF-7 cells [1]; 100 pM E2, day 7): enhanced the antiproliferative action of tamoxifen
- IC50 (MCF-7 cells [1]; read-out: IC50 (cell proliferation), co-treatment with tamoxifen, with 10 nM OH-Tam, 100 pM E2, day 7): 0.032 µM

Structure (SMILES): CCCC(CCC)C(=O)O [VPA, valproic acid sodium salt (sodium 2-propylpentanoate)]
- cell number and morphology by phase microscopy (MCF-7 cells [4]): fewer cells as well as an increased number of floating cells
- ERE-Luc transcription ([2]; 750 μM VPA, alone or with 10 nM OH-Tam): unable to activate transcription alone or in the presence of tamoxifen
- ERE-Luc transcription ([2]; high concentrations, alone): induced transcription
- E2-induced ERE-Luc transcriptional activity ([2]; high dose of VPA alone, in the presence of E2): inhibited E2-induced transcriptional activity
- testosterone-induced proliferation, VPA with letrozole (MCF-7aro cells; 750 μM VPA, regardless of the letrozole dose tested): inhibited proliferation more than that observed with letrozole alone
- E2-induced cell proliferation (MCF-7 cells [1]; 750 μM VPA, 10 nM OH-Tam, 6-7 days, counted electronically): inhibition by VPA was even more dramatic
- effect of VPA on tamoxifen inhibition of cell proliferation (MCF-7 cells [1]; 750 μM VPA, OH-Tam 0 to 500 nM, 100 pM E2, day 6): enhanced the relative efficacy of tamoxifen at all doses tested
- cell proliferation (MCF-7 cells [1]; 750 μM VPA, without E2, 6-7 days, counted electronically): inhibited MCF 7 cells
- inhibition at 750 µM (MCF-7 cells [1]; Homo sapiens, MCF7, 144 h, 750 μM VPA alone, 100 pM E2, day 6, fluorescent DNA-binding assay, read-out: inhibition of E2-stimulated cell proliferation): 25%
- IC50 (MCF-7 cells [1]; Homo sapiens, MCF7, 168 h, 100 pM E2, day 7, doses of VPA ranging from 50 μM to 5 M, read-out: IC50 (cell proliferation), HDAC inhibitor alone): 800 µM
- IC50 (MCF-7 cells [1]; Homo sapiens, MCF7, 168 h, read-out: IC50 (cell proliferation), tamoxifen co-treatment, with 10 nM OH-Tam, 100 pM E2, day 7): 500 µM
- slowing of breast cancer cell growth in combination (MCF-7 cells [1]; VPA 750 μM with rapamycin 0.05 nM, picropodophyllin 100 nM, tamoxifen 100 nM): combines effectively
- slowing of breast cancer cell growth in combination (MCF-7 cells [1]; VPA 750 μM with rapamycin […], gefitinib 1 μM, with and without tamoxifen 100 nM): combines effectively
- effect of HDAC inhibitor on antiproliferative action of tamoxifen (MCF-7 cells [1]; 100 pM E2, day 7): enhanced the action of tamoxifen
- ERα protein expression (ERα; only observed in the absence of E2): slightly downregulated ERα protein expression
- increased ERα expression seen with tamoxifen treatment (ERα; VPA with tamoxifen, absence of E2): attenuated the increased ERα expression
- cell proliferation (MCF-7/HER2 cells): inhibited by VPA
- effect of VPA on E2- and tamoxifen-induced proliferation [3]: equally antagonized the proliferative effect of E2 and tamoxifen
- cell numbers / proliferation [3]: dramatically inhibited proliferation
- addition of VPA to tamoxifen on E2-induced cell cycle progression (MCF-7 cells [5]; E2 present): did not yield a detectable change
- cell cycle distribution (MCF-7 cells [5]; E2 present): had no effect
- cell cycle distribution (MCF-7 cells [5]; absence of E2): induced a small arrest in the G1 phase
- cyclin D1 expression (cyclin D1): did not alter cyclin D1 expression
- Bcl-2 protein expression (Bcl-2): did not have any effect on Bcl-2 expression either alone or with tamoxifen
- AnnexinV positive cells (apoptotic index), % of total cell population (MCF-7 cells [6]): approximately 1.37%

Structure (SMILES): N#Cc1ccc(C(c2ccc(C#N)cc2)n2cncn2)cc1 [letrozole]
- testosterone-induced proliferation (MCF-7aro cells; 1 nM testosterone): inhibited testosterone-induced proliferation in a dose responsive manner

Structure (SMILES): O=C(c1ccc(OCCN2CCCCC2)cc1)c1c(-c2ccc(O)cc2)sc2cc(O)ccc12 [Raloxifene, raloxifene]
- E2-stimulated growth, antiestrogen alone (MCF-7 cells [1]): substantially decreased E2-stimulated growth
- E2-stimulated growth, antiestrogen plus VPA (MCF-7 cells [1]): VPA further enhanced its inhibitory effect
